According to patent US20100055133A1, “PHARMACEUTICAL COMPOSITIONS” (Biovail Laboratories International (Barbados) S.R.L, priority 2008, published 2010):

Test: Tetrabenazine solubility across the pH range 2-12 (Comparative Example 1)
Format: physicochemical
Procedure: The following example employs immediate-release tablets of tetrabenazine, in contrast to the controlled-release tablets of the present invention, to determine the solubility of tetrabenazine across the pH range 2-12.
The dissolution of tetrabenazine 12.5 mg and 25 mg immediate-release tablets was conducted in 0.1 M hydrochloric acid solution (pH 1.5).
The solubility of tetrabenazine was determined across the pH range 2-12 in water, adjusted with hydrochloric acid/sodium hydroxide as necessary and if feasible complete dissolutions at pH 7.0 and pH 12.
All samples were protected from light throughout the experiment.

## COc1cc2c(cc1OC)C1CC(=O)C(CC(C)C)CN1CC2 (stereo not drawn) [tetrabenazine, 1,3,4,6,7,11b-hexahydro-9,10-dimethoxy-3-(2-methylpropyl)-2H-benzo(a)quinolizin-2-one]
Between pH 4 and pH 12
  solubility: approximately 3.0 mg/100 ml
  solubility category: practically insoluble
pH 2
  solubility category: slightly soluble
pH 3
  solubility: approximately 4.0 mg/100 ml
  solubility category: practically insoluble
pH range of 3-12
  solubility category: practically insoluble
